This is an account of results in patent publication US5491216A, “Tri-arginine insulins” (Eli Lilly and Company, priority 1993, dated 1996).

Series [1] concerns New Zealand White rabbits. Nature of the series: Hypoglycemic activity after subcutaneous injection in fasted rabbits (blood glucose, percent of original). The series is classed as in vivo, rabbit. Particulars: for Percent of Original Blood Glucose: added zinc 0 mg/ml, 0.2 U/kg s.c., 40 U/ml, n = 10 rabbits.
Description: Solutions were prepared containing various amounts of zinc (0-2.4 mg/ml) in the form of zinc chloride. Glacial acetic acid was used to solublize each of the solutions at a final pH range of pH 4-6.
New Zealand White rabbits, mostly female, all weighing 0 2.7-4 kg, 0.5-4 years of age and fasted 16 hours prior to administration of sample were used for testing.
At various times, 100 μl volumes of blood were obtained from the marginal ear veins, mixed with 900 μl volumes of anticoagulant (EDTA-sodium fluoride) and analyzed for glucose content. The glucose values were standardized to reflect percent of original blood glucose measured prior to sample injection.
For series [2] the following is noted: standardized value used in the formula for test solutions; cited from earlier work.

Regarding “Des(64) HPI: split(64) proinsulin wherein Lys-64 is removed”, the “Percent of Original Blood Glucose” value in series [1] (1 hour after injection) was 63.1%; in series [1] (2 hours after injection) it was 70.5%; in series [1] (4 hours after injection), 90.6%; in series [1] (6 hours after injection), 90.0%. In addition, the hypoglycemic activity result in series [1] (result in words, animal model) is “hypoglycemic activity of its own”.
Regarding “human insulin: natural human insulin, reference for biopotency”, the “standardized value (potency per mg protein)” value in series [2] was 28.85 U/mg.
